In US20240327381A1, “Compounds and Compositions for Selective Degradation of Engineered Proteins” (Celgene Corporation, priority 2023, published 2024):
Where two headings read alike, the source gives them in different places.

Key:
Helios = target: T1, Helios (Homo sapiens, UniProt Q9UKS7); experiment: Helios degradation in Jurkat/Helios/HiBit cells (Nano-Glo luminescence); type: cell-based; details: 18 hr, read-out: Helios Jurkat Hibit IC50
T1 construct: endogenous in cells; host or cells: Jurkat cells, CRISPR/Cas9 knock-in of HiBit at the IKZF2 locus
How it was run: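 Jurkat cells carrying CRISPR-knocked-in C-terminal HiBit-tagged endogenous IKZF2 were treated with compound in DMEM/10% FCS (10,000 cells/well) for 18 h at 37 °C. HiBit signal was read by Nano-Glo luminescence after 30 min at RT. EC50 for degradation came from a four-parameter logistic fit, with Ymax as % protein degraded.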

[1] = target: T2, IKZF1 ZNF2_ZNF3 Q1F degron-tagged CD19 CAR (Homo sapiens, UniProt Q13422, Q146F); experiment: Degradation of Q1F degron-tagged CD19 CAR in Jurkat cells (flow cytometry of CAR levels); type: cell-based; details: for DC50: Jurkat cells expressing CD19 CAR tagged with IKZF1 ZNF2_ZNF3 Q1F, 18 hours at 37° C., CAR levels normalized to untreated cells, read-out: Q1F Jurkat IC50; for Dmax: read-out: Q1F Jurkat-YMax
T2 construct: ZNF2_ZNF3 Q1F degron (GERPFFCNQCGASFTQKGNLLRHIKLHSGEKPFKCHLCNYACRRRDALTGHLRTHS); fused on or other part: anti-CD19 scFv, CD28 transmembrane domain, 4-1BB costimulatory domain, CD3 zeta signaling domain (the CAR that carries the degron), and Nluc
How it was run: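 Jurkat cells were lentivirally transduced with an anti-CD19 scFv/CD28 TM/4-1BB/CD3ζ CAR tagged with an IKZF1 ZNF2_ZNF3 Q1F degron–Nluc, then treated with compound titrations for 18 h at 37 °C. CAR surface levels were stained (20 min, 4 °C), read by flow cytometry and normalised to untreated cells. EC50 came from a four-parameter logistic fit; Ymin is the minimum % CAR remaining.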

[2] = Ymax is the % protein degraded, Jurkat cells expressing Q1F degron-tagged CD19 CAR, 18 hours

T2 sequence (Q13422 whole entry Q146F, the tested form may be a part): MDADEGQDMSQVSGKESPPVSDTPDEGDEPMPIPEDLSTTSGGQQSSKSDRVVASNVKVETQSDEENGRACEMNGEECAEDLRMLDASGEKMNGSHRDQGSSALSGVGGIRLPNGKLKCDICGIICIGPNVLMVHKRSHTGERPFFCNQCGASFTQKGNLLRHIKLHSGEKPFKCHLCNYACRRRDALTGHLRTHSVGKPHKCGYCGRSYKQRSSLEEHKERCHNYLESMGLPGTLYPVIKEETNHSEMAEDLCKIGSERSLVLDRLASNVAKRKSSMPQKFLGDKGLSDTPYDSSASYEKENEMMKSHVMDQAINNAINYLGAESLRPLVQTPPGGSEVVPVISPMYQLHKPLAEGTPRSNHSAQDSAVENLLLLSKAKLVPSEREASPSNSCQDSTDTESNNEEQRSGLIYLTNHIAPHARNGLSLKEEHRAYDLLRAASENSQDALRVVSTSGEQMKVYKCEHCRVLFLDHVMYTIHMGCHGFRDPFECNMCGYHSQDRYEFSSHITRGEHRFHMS
T1 sequence (Q9UKS7 whole entry): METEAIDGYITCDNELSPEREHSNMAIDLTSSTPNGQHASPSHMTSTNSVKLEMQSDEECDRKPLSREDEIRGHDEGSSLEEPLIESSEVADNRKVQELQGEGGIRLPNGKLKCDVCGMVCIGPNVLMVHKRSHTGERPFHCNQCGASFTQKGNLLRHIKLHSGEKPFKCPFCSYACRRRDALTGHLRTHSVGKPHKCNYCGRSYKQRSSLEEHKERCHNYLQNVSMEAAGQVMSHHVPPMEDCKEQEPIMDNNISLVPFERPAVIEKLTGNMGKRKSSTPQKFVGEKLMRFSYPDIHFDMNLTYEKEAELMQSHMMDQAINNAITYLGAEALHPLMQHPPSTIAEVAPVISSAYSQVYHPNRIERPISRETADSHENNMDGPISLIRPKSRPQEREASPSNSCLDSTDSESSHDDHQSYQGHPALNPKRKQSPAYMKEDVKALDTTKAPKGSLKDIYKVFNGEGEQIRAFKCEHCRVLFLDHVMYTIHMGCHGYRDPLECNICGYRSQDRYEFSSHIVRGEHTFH
T1 sequence (Q96SW2 whole entry, further chain): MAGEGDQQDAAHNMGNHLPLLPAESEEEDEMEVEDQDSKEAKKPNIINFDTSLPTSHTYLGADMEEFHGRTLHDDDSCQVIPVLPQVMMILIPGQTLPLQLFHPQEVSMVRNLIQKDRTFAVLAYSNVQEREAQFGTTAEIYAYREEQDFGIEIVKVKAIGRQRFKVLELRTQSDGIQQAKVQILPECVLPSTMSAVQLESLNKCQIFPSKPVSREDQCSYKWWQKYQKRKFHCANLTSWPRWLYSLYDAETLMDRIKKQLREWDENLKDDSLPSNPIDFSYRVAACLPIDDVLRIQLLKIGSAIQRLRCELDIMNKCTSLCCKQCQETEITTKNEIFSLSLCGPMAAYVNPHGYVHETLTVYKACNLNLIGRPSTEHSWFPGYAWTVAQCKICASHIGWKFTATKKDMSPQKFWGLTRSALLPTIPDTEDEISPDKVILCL
T1 sequence (Q16531 whole entry partner): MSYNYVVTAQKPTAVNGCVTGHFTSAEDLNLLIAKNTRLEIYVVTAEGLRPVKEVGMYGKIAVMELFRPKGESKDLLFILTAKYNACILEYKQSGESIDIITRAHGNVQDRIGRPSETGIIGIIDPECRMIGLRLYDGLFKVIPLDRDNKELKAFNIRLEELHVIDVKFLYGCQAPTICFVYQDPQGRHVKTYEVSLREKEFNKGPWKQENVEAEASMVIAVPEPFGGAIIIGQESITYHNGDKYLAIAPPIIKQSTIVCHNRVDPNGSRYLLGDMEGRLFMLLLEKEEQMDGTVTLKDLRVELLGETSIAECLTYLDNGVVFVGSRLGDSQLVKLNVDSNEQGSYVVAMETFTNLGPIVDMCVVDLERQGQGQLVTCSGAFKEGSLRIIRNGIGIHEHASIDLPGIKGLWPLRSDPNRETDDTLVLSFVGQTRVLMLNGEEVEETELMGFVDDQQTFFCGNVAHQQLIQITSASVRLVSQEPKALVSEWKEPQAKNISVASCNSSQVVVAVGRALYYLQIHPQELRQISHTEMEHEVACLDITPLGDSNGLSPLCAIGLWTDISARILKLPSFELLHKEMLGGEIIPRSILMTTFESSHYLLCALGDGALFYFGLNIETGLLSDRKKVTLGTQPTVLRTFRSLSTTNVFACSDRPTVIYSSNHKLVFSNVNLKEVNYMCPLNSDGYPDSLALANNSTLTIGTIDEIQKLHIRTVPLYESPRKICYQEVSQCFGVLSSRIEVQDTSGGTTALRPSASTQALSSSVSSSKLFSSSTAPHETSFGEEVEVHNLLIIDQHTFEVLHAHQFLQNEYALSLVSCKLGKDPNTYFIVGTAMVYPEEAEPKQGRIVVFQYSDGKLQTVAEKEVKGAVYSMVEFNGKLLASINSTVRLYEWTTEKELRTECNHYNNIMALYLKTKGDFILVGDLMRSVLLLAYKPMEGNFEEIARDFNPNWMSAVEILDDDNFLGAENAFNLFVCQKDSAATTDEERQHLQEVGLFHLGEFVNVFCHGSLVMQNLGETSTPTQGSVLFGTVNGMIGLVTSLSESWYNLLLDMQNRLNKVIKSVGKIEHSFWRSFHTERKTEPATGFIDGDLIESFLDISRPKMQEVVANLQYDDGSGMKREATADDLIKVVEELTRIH

SMILES | DC50 (Helios) [nM] | DC50 [1] [nM] | Dmax [1, 2] [%] | Dmax ([1]; Jurkat, 18 h) [%]
O=C1CC[C@@H](N2Cc3c(cc(F)c(C4CC5CCC(C4)N5Cc4ccc5ncsc5c4)c3F)C2=O)C(=O)N1 (stereo partly drawn) [Compound 127, (3R)-3-(5-(8-(benzo[d]thiazol-6-ylmethyl)-8-azabicyclo[3.2.1]octan-3-yl)-4,6-difluoro-1-oxoisoindolin-2-yl)piperidine-2,6-dione] | ≥ 10000 | 5.94 | 91.2 | –
O=C1CCC(N2Cc3c(cc(F)c(C4(O)CCN(Cc5ccc6ncsc6c5)CC4)c3F)C2=O)C(=O)N1 (stereo not drawn) [Compound 12] | ≥ 10000 | 4.33 | 83.4 | –
CN(CCN1CCC(O)(c2c(F)cc3c(c2F)CN(C2CCC(=O)NC2=O)C3=O)CC1)S(=O)(=O)c1ccccc1 (stereo not drawn) [Compound 40, N-[2-[4-[2-(2,6-dioxo-3-piperidyl)-4,6-difluoro-1-oxo-isoindolin-5-yl]-4-hydroxy-1-piperidyl]ethyl]-N-methyl-benzenesulfonamide] | ≥ 10000 | 67.7 | 60 | –
Cc1cc(-c2cc3c(cc2F)C(=O)N(C2CCC(=O)NC2=O)C3)nc(N)c1C (stereo not drawn) [Compound 34, 3-(5-(6-amino-4,5-dimethylpyridin-2-yl)-6-fluoro-1-oxoisoindolin-2-yl) piperidine-2,6-dione] | ≥ 10000 | 7.43 | – | 91.7
O=C1CCC(N2Cc3c(cc(F)c(C4(O)CCN(Cc5cccc(-n6cccn6)c5)CC4)c3F)C2=O)C(=O)N1 (stereo not drawn) [Compound 15, 3-(5-(1-(3-(1H-pyrazol-1-yl)benzyl)-4-hydroxypiperidin-4-yl)-4,6-difluoro-1-oxoisoindolin-2-yl)piperidine-2,6-dione] | ≥ 10000 | 4.94 | 79.9 | –
CC(=O)Nc1ccc(CN2CCC(c3c(F)cc4c(c3F)CN(C3CCC(=O)NC3=O)C4=O)CC2)cc1 (stereo not drawn) [Compound 101, N-(4-((4-(2-(2,6-dioxopiperidin-3-yl)-4,6-difluoro-1-oxoisoindolin-5-yl)piperidin-1-yl)methyl)phenyl)acetamide] | ≥ 10000 | 0.473 | 86.9 | –
O=C1CCC(N2Cc3c(cc(F)c(C(=O)N4CCc5c(Cl)cccc5C4)c3F)C2=O)C(=O)N1 (stereo not drawn) [Compound 71, 3-[5-(5-chloro-3,4-dihydro-1H-isoquinoline-2-carbonyl)-4,6-difluoro-1-oxo-isoindolin-2-yl]piperidine-2,6-dione] | ≥ 10000 | 23.7 | 95.7 | –
O=C1CCC(N2Cc3cc(C4CCN(Cc5ccc6c(c5)CCC6)CC4)c(F)cc3C2=O)C(=O)N1 (stereo not drawn) [Compound 88, 3-(5-(1-((2,3-dihydro-1H-inden-5-yl)methyl)piperidin-4-yl)-6-fluoro-1-oxoisoindolin-2-yl)piperidine-2,6-dione] | ≥ 10000 | 3.1 | 91.6 | –
O=C1CCC(N2Cc3c(cc(F)c(C4(O)CCN(Cc5ccccc5C(F)(F)F)CC4)c3F)C2=O)C(=O)N1 (stereo not drawn) [Compound 32, 3-(4,6-difluoro-5-(4-hydroxy-1-(2-(trifluoromethyl)benzyl)piperidin-4-yl)-1-oxoisoindolin-2-yl)piperidine-2,6-dione] | ≥ 10000 | 9.54 | 80.2 | –
O=C1CCC(N2Cc3cc(C4CCN(Cc5ccc6scnc6c5)CC4)c(F)cc3C2=O)C(=O)N1 (stereo not drawn) [Compound 86, 3-(5-(1-(benzo[d]thiazol-5-ylmethyl)piperidin-4-yl)-6-fluoro-1-oxoisoindolin-2-yl)piperidine-2,6-dione] | ≥ 10000 | 1.94 | 92.1 | –
O=C1CCC(N2Cc3c(cc(F)c(C4CCN(Cc5ccc(-c6ccccc6)o5)CC4)c3F)C2=O)C(=O)N1 (stereo not drawn) [Compound 5, 3-(4,6-difluoro-1-oxo-5-(1-((5-phenylfuran-2-yl)methyl)piperidin-4-yl)isoindolin-2-yl)piperidine-2,6-dione] | ≥ 10000 | 5.7 | 85.8 | –
Cc1cc(-c2c(F)cc3c(c2F)CN(C2CCC(=O)NC2=O)C3=O)nc(N)c1C (stereo not drawn) [Compound 93, 3-(5-(6-amino-4,5-dimethylpyridin-2-yl)-4,6-difluoro-1-oxoisoindolin-2-yl) piperidine-2,6-dione] | ≥ 10000 | 217 | – | 69.1
O=C1CCC(N2Cc3cc(C4CCN(Cc5nc6ccccc6s5)CC4)c(F)cc3C2=O)C(=O)N1 (stereo not drawn) [Compound 83, 3-(5-(1-(benzo[d]thiazol-2-ylmethyl)piperidin-4-yl)-6-fluoro-1-oxoisoindolin-2-yl)piperidine-2,6-dione] | ≥ 10000 | 19.9 | 76.8 | –
Cc1cc(Br)cnc1CN1CCCC(c2c(F)cc3c(c2F)CN(C2CCC(=O)NC2=O)C3=O)C1 (stereo not drawn) [Compound 68, 3-(5-(1-((5-bromo-3-methylpyridin-2-yl)methyl)piperidin-3-yl)-4,6-difluoro-1-oxoisoindolin-2-yl)piperidine-2,6-dione] | ≥ 10000 | 50.5 | 63.5 | –
O=C1CCC(N2Cc3c(cc(F)c(C4CCN(CC5CCCCC5)CC4)c3F)C2=O)C(=O)N1 (stereo not drawn) [Compound 67, 3-(5-(1-(cyclohexylmethyl)piperidin-4-yl)-4,6-difluoro-1-oxoisoindolin-2-yl)piperidine-2,6-dione] | ≥ 10000 | 0.563 | 89 | –
Cn1nccc1CN1CCC(c2c(F)cc3c(c2F)CN(C2CCC(=O)NC2=O)C3=O)CC1 (stereo not drawn) [Compound 102, 3-(4,6-difluoro-5-(1-((1-methyl-1H-pyrazol-5-yl)methyl)piperidin-4-yl)-1-oxoisoindolin-2-yl)piperidine-2,6-dione] | ≥ 10000 | 0.283 | 84.3 | –

Further lines, with some results ahead:

DC50 (Helios) [nM] | DC50 [1] [nM] | Dmax [1, 2] [%] | SMILES | Dmax ([1]; Jurkat, 18 h) [%]
≥ 10000 | 162 | 60 | O=C1CCC(N2Cc3c(cc(F)c(CNCc4ccc(C(F)F)cc4)c3F)C2=O)C(=O)N1 (stereo not drawn) [Compound 79, 3-(5-(((4-(difluoromethyl)benzyl)amino)methyl)-4,6-difluoro-1-oxoisoindolin-2-yl)piperidine-2,6-dione] | –
≥ 10000 | 108 | 74.9 | O=C1CCC(N2Cc3c(cc(F)c(C(=O)Nc4nccn4C4CCC4)c3F)C2=O)C(=O)N1 (stereo not drawn) [Compound 74, N-(1-cyclobutyl-1H-imidazol-2-yl)-2-(2,6-dioxopiperidin-3-yl)-4,6-difluoro-1-oxoisoindoline-5-carboxamide] | –
≥ 10000 | 10.8 | 74.8 | O=C1CCC(N2Cc3c(cc(F)c(C4CCN(CCC(F)(F)F)CC4)c3F)C2=O)C(=O)N1 (stereo not drawn) [Compound 114, 3-(4,6-difluoro-1-oxo-5-(1-(3,3,3-trifluoropropyl)piperidin-4-yl)isoindolin-2-yl)piperidine-2,6-dione] | –
≥ 10000 | 3.19 | 85.5 | O=C1CCC(N2Cc3c(cc(F)c(C4CCN(Cc5cnc6ccccc6n5)CC4)c3F)C2=O)C(=O)N1 (stereo not drawn) [Compound 116, 3-(4,6-difluoro-1-oxo-5-(1-(quinoxalin-2-ylmethyl)piperidin-4-yl)isoindolin-2-yl)piperidine-2,6-dione] | –
≥ 10000 | 4.97 | 91.7 | O=C1CCC(N2Cc3c(cc(F)c(C4CCN(Cc5ccc(-n6ccnc6)cc5)CC4)c3F)C2=O)C(=O)N1 (stereo not drawn) [Compound 8, 3-(5-(1-(4-(1H-imidazol-1-yl)benzyl)piperidin-4-yl)-4,6-difluoro-1-oxoisoindolin-2-yl)piperidine-2,6-dione] | –
≥ 10000 | 1.36 | 88.4 | O=C1CCC(N2Cc3c(cc(F)c(C4CCN(Cc5ncccc5Br)CC4)c3F)C2=O)C(=O)N1 (stereo not drawn) [Compound 50, 3-(5-(1-((3-bromopyridin-2-yl)methyl)piperidin-4-yl)-4,6-difluoro-1-oxoisoindolin-2-yl)piperidine-2,6-dione] | –
≥ 10000 | 0.202 | 90.7 | O=C1CCC(N2Cc3c(cc(F)c(C4CCN(CC(c5ccccc5)c5ccccc5)CC4)c3F)C2=O)C(=O)N1 (stereo not drawn) [Compound 10, 3-(5-(1-(2,2-diphenylethyl)piperidin-4-yl)-4,6-difluoro-1-oxoisoindolin-2-yl)piperidine-2,6-dione] | –
≥ 10000 | 3.23 | 84.6 | O=C1CCC(N2Cc3c(cc(F)c(C4CCN(CC5CCCC5)CC4)c3F)C2=O)C(=O)N1 (stereo not drawn) [Compound 112, 3-(5-(1-(cyclopentylmethyl)piperidin-4-yl)-4,6-difluoro-1-oxoisoindolin-2-yl)piperidine-2,6-dione] | –
≥ 10000 | 165 | 65.8 | O=C1CCC(N2Cc3c(cc(F)c(C4CCN(Cc5nnc(-c6ccccc6)o5)CC4)c3F)C2=O)C(=O)N1 (stereo not drawn) [Compound 120, 3-(4,6-difluoro-1-oxo-5-(1-((5-phenyl-1,3,4-oxadiazol-2-yl)methyl)piperidin-4-yl)isoindolin-2-yl)piperidine-2,6-dione] | –
≥ 10000 | 105 | 82.3 | Cc1cc(CN2CCC(c3c(F)cc4c(c3F)CN(C3CCC(=O)NC3=O)C4=O)CC2)on1 (stereo not drawn) [Compound 4, 3-(4,6-difluoro-5-(1-((3-methylisoxazol-5-yl)methyl)piperidin-4-yl)-1-oxoisoindolin-2-yl)piperidine-2,6-dione] | –
